We go through two compounds from patent EP0297946A2, “Cytochalasin purification methods and compositions” (priority 1987, dated 1989).

SMILES strings stand for the structures. “And” between values parts separate entries of the source, which are not always exact repeats. Equal values may be shown once. Read-outs that look alike come from different tables or passages of the source.

One may read the IC50 as the concentration that inhibits the measured activity by half. By MTD is commonly meant the largest dose that counted as tolerated. A higher MTD goes with a wide tolerated range.

The test system of data set [1] is P388 murine leukemia cells (drug-resistant line). Briefly: cells. The format is cell-based. The note with it: Mus musculus. How it is done:
ICs for cytochalasins and antineoplastic agents were determined by inoculating wells containing cultured cells with dilutions of the desired compound, and the resulting exposed cell viability determined at a fixed timepoint after exposure (i.e., 20 or 48 hours). The concentration of the compound that is found to inhibit 50% of the initial cells cultured is the IC50 of that compound with respect to those cells. The IC90 and IC100s can similarly be determined.
Inhibitory concentrations ("ICs") of ADR, CA, and CB on P388 murine leukemia cells (drug-resistant line) were determined as follows.
Cells (5 X 10⁴) were plated out in 200 uL of RPMI 1640 medium containing 10% calf serum. CB, CA, and ADR were added to wells as follows to determine inhibitory concentration as follows: 8 wells were inoculated with dilutions of CB: 0.00 uM CB, 1.00 uM CB, 2.00 uM CB, 4.00 uM CB, 10.00 uM CB, 20.00 uM, 40.00 uM CB, and 80.00 uM CB. […]
All wells were incubated at 37°C, in 5% CO₂ for 3 hours, after which time the plate was centrifuged at 600 X g for 5 minutes, the drug medium removed and replaced with 200 uL of fresh RPMI 1640 medium, containing 10% calf serum, centrifuged again at 600 X g, and cells refed and incubated for 45 hours at 37°C, in 5% CO₂. After the 45 hour incubation, the cells were analyzed for viability using the MTT reduction assay as described in Alley et al.

A short description of data set [2]: Maximum tolerated single bolus dose (MTD) of CB by vehicle and route of administration. It counts as in vivo, CD2F₁ mice. The note with it: for MTD: mouse, in vivo. How it is done:
(§1) The maximum tolerated single bolus dose (MTD) of CB (LD₅₋₁₀) was estimated as a function of vehicle and route of administration, in M109 tumor-bearing, B16F10 tumor-bearing, and normal mice (Table 2). Both CD2F₁ and B6D2F₁ mice were tested. […] In tissue distribution studies of CB in vivo, 50 mg/kg (1000 ug/20 g mouse) was injected intraperitoneally and the distribution determined at time intervals thereafter as explained in Example 13. […] It is cleared from the spleen and pancreas by 12 hours, but persists in liver for 72 hours. Some CB is metabolized within the first few minutes after injection, but the remaining 35% persists in liver for up to 72 hours. Sustained release formulations such as liposomes would maintain active CB in tissues.
The vehicles used in the invention may be selected with regard to the intended route of administration and standard pharmaceutical practice. The preparations can be injected parenterally, for example, intra-arterially or intravenously. The preparations may also be administered via oral, subcutaneous, intraperitoneal, or intramuscular routes. For parenteral administration, they can be used, for example, in the form of a sterile pyrogen-free aqueous solution which may contain other solutes.
For example, in the present studies, 0.85% (wt/v) sterile sodium chloride solution, sterile pyrogen-free CM-cellulose (1%)Tween-20 (2%), 10% Intralipid (Cutter Laboratories), or 48% ethanol/sodium chloride (v/v) solution were used as vehicles. Liposomes can alternatively be used as a vehicle. In such cases, the CB can be entrapped by any of the methods known in the art for forming liposomes, mentioned hereinbelow, and administered by any of the above-named routes of administration.
The MTD of CB suspension in pyrogen-free carboxymethyl cellulose(1%)/Tween -20 (2%) was 100 mg/kg SC, 50 mg/kg IP, and 10 mg/kg IV when administered to CD2F₁ mice. In DMSO, the MTD was 25 mg/kg IP, and less than 100 mg/kg SC, and in 33% ethanol, 10 mg/kg IV. At doses of 100 -150 mg/kg CB administered SC in CMC/Tw to CD2F₁ mice that had sustained challenge 24 hr with M109 tumor cells implanted SC, appearance of measurable tumor nodules were delayed by 66%.
The maximum tolerated dose (MTD) of CB (50 mg/kg CB) by intraperitoneal administration was determined by the following procedure. A solution of CB as isolated by Example 2 was obtained by sonication of the CB in DMSO (to make a 25 mg/kg solution of CB) for 2 minutes in an ultrasonic bath at 80-90 Hz power.
The above procedure was repeated for CB in CM-cellulose/Tween 20 (CMC/Tw) vehicle (0.1 ml administered).
The above procedures were repeated for 25 and 100 mg/kg CB in DMSO, and for 100 mg/kg CB in CMC/Tw.
The maximum tolerated dose (MTD) of CB (150 mg/kg, in CMC/Tw) by subcutaneous administration over the peritoneal wall was determined by the procedure of Example 8.
The maximum tolerated dose (MTD) of CB (5 mg/kg) by intravenous administration was determined by the procedure of Example 7. The CB was suspended in 0.1 ml 95% ethanol/0.85% NaCl (1:2 v/v), heated to 37°C and administered via tail vein within 5 minutes of mixing.
The above procedure was repeated using 0.1 ml CM-Cellulose/Tween 20.
The above procedure was repeated using 10, 20, 40, and 50 mg/kg dose of CB with the CM-Cellulose/Tween 20 vehicle, and 10, 20, and 40 mg/kg CB with EtOH/NaCl.

Data set [3] is described as follows: Tissue distribution of CB in vivo after IP bolus injection, HPLC analysis of tissue extracts. Further details: species or system mice. The note with it: 50 mg/kg IP single bolus. The method, then:
as §1
Livers of mice treated according to Examples 4, 5 and 6 were homogenized with a Brinkman polytron using 5.0 ml of methanol /g tissue. The homogenate was centrifuged at 5000g for 5 minutes. The supernatant was brought to 80% water using HPLC grade water and passed through Sep-Pak C-18 cartridges that had first been conditioned with 5.0 ml methanol, followed by 10.0 ml of distilled water. The cartridges were dried under vacuum and washed with 3.0 ml hexane (HPLC grade), and the CB recovered with 2.0 ml of EtOAc (HPLC grade). The elutes were evaporated under a stream of nitrogen and dissolved in 250 ul tetrohydrofuran (HPLC grade). Samples were filtered through a 0.45 um nylon syringe filter into a 50 ul sample loop. The samples were analyzed by HPLC, using a regular phase silica column, a solvent system of hexane:tetrahydrofuran (60:40), and analyzed at 230 nm. The lower limit of sensitivity was determined to be 1 ug per total extract since 20% was analyzed with a quantitative limit of 0.2 ug.

Data set [4] has as its system Madison 109 (M109) carcinoma. Briefly: Madison 109 carcinoma tumor model in mice treated with a single bolus of CB. It counts as in vivo, CD2F₁ mice. The method, then: For SC tumors, growth was monitored by calculating tumor weight according to the methods of Johnson et al. (1975, Cancer Chemo. Rep., 59(4):697-705). For IP and IV-induced tumors, growth was determined by host survival. Metastases were determined at necropsy by fixation of the organ in Bouins solution according to standard procedure, and metastatic foci counted under a dissecting microscope (see Table 1).
Madison 109 (M109) carcinoma was maintained in Balb/c and CD2F₁ mice by serial passage of 20% tumor brei (approximately 1X10⁶ total cells) in mice every 12 days according to the techniques of Rose (1981, Cancer Treat. Rep., 65:299-312). The CD2F₁ were implanted with 0.2 ml M109 SC ventrally on the abdomen. Tumor brei were prepared by excising the tumor from the passage mouse, removing any necrotic areas, weighing the tumor, mincing it, and suspending the fragments in 0.1 ml 20% (v/v) penicillin/streptomycin (Gibco) and 0.85% (w/v) sterile sodium chloride solution (total 1.0 ml/g tumor), and dispersed by repeated aspiration and expulsion through a syringe. The suspension was then diluted to 20% with 0.85% sterile sodium chloride and 0.2 ml was injected SC. Viability of the tumor suspension was about 20%, as determined by the standard trypan blue exclusion test.
The above procedure was repeated, administering the M109 tumor brei IV 90.1 ml) through the tail vein, or IP (0.2 ml).
Mice (6) were subcutaneously implanted with 1X10⁵ tumor cells as isolated in Example 4 on Day 0, and drug treatment was given on Day 1. CB (100 mg/kg mouse, or 0.2 ml of 10.0 mg/ml CB, per 20 gm mouse), suspended in CMC/Tw was administered to mice.
Lower tumor weight was detected in all the treated groups as compared to controls, although this difference lessened with advancing stage of tumor growth. […] No effect on reducing tumor metastases in the liver or spleen was detected with SC administration of CB.

A further data set concerns B16F10 tumor. Briefly: Dose response against B16F10 tumor in mice, CB given peri-tumorally SC. The format is in vivo. How it is done: CB (100 mg/kg) administered peri-tumorally delays the tumor appears from Day 7 to Day 18, when treatment is administered on Day 1.
The test system of data set [5] is P388 murine leukemia cells (P388/ADR). Briefly: P388/ADR cells in 24-well plates, 3 hours exposure, Coulter counting after 96 hours. The note with it: Mus musculus. The format is cell-based.
Protocol: P388 murine leukemia cells (P388/ADR) selected for multi-drug resistance to doxorubicin and other natural product anti-tumor agents, provided by the National Institutes of Health, were seeded at 5 X 10⁴ cells/ml in 24-well microtiter plates, 2.0 ml per well, in RPMI 1640 medium with 10% fetal calf serum and 10 uM mercaptoethanol. The cells were allowed to equilibrate and divide overnight at 37°C, in 5% CO₂, then treated in duplicate wells with ADR at 2.5, 5, 10, and 20 uM. Other duplicate wells were treated with CB at 2.5, 5, 7.5, 10, and 20 uM. Duplicate wells also contained the above amounts of ADR and CB, which were added to the cells simultaneously. […] After 3 hours of incubation at 37°C, the cells from each well were transferred to sterile centrifuge tubes, and the wells washed with 2.0 ml of sterile medium to assure full cell transfer. The tubes were centrifuged at 600 x g for 5 minutes, and the drug-medium decanted and discarded. The cells were then resuspended in 2.0 ml of fresh medium and plated into 24-well plates, incubated at 37° C for 96 hours, and cell viability and growth after treatment determined by Coulter counting.
For data set [6] the following is noted: short-term exposure of about 2 hours; cited from earlier work.
The mark [7] stands for this setting: CB on Day 1 or when the nodule was detected.

As for `COc1cccc2c1C(=O)c1c(O)c3c(c(O)c1C2=O)C[C@@](O)(C(=O)CO)C[C@@H]3O[C@H]1C[C@H](N)[C@H](O)[C@H](C)O1` [ADR, doxorubicin, reference compound], the IC50 in data set [1] (3 hours exposure, viability by MTT after 45 hours, read-out: IC50) was found to be 3.5 µM.
As to `C=C1C(C)C2C(Cc3ccccc3)NC(=O)C23OC(=O)C=CC(O)CCCC(C)CC=CC3C1O` (stereo not drawn) [CB, cytochalasin B], the “toxicity in DMSO relative to CM-Cellulose/Tween 20” value in data set [2] (IP administration (Example 8)) and in data set [2] (SC administration (Example 9)) was “approximately twice as toxic” each time. Moreover, the MTD was 50 mg/kg in data set [2] (ip, CB suspension in carboxymethyl cellulose(1%)/Tween-20 (2%), single bolus, CD2F₁ mice); 25 mg/kg in data set [2] (ip, in DMSO); 10 mg/kg in data set [2] (iv, CB suspension in carboxymethyl cellulose(1%)/Tween-20 (2%), single bolus, CD2F₁ mice); 10 mg/kg in data set [2] (iv, in 33% ethanol); 100 mg/kg in data set [2] (sc, CB suspension in carboxymethyl cellulose(1%)/Tween-20 (2%), single bolus, CD2F₁ mice); less than 100 mg/kg in data set [2] (sc, in DMSO). Moreover, the “sensitivity to CB of CD2F₁ as compared to B6D2F₁ mice” value in data set [2] (single bolus dose) is listed as “Slightly greater sensitivity”. This compound also gave a persistence in liver in data set [3] of 72 h. In addition, the “time by which cleared from the spleen and pancreas” value in data set [3] is no more than 12 h. Moreover, the tissue distribution result in data set [3] is “appears at the highest levels in liver, spleen, and pancreas”. Besides, the “remaining CB that persists in liver for up to 72 hours” value in data set [3] (some CB metabolized within the first few minutes) was found to be 35%. Besides, the “lung tumor nodules (metastases) versus vehicle controls” value in data set [4] (100 mg/kg CB SC at the time of tumor detection) was “fewer lung tumor nodules”. Further, the “delay of appearance of measurable tumor nodules” value in data set [4] (100-150 mg/kg CB SC in CMC/Tw, CD2F₁ mice, 24 hr after SC M109 challenge) stood at 66%. Also, the “animals tumor-free by Day 50” value in data set [4] (setting [7]) is recorded as 33%. Moreover, in data set [4] (setting [7]), the median survival time entry was “increased median survival time”. In addition, the “cytotoxic effects (life span)” value in data set [4] (IV tumor challenge, 50 mg/kg CB by the IP route) is listed as “no cytotoxic effects were observed”. Further, in data set [4] (SC administration of CB), the “tumor metastases in the liver or spleen” value is “No effect”. Further, the tumor growth rate entry in data set [4] (SC peri-tumorally on Day 1 or when a measurable nodule was observed (around Day 6)) is listed as “significant decrease in tumor growth rate”. The “effect on SC tumor” value in data set [4] (SC single bolus 24 hours after tumor challenge or when the tumor appeared (about day 6)) is “delay the appearance of measurable tumor nodules, to slow growth rate of the nodule to inhibit invasion, and to extend life span”. Further, the “day of tumor appearance” value in the data set with B16F10 tumor (CB 100 mg/kg peri-tumorally on Day 1, without treatment Day 7) is 18 days. Further, the “tumor nodule growth rate” value with B16F10 tumor (CB administered subcutaneously) is “measurable effect”. In addition, the IC50 in data set [1] and in data set [5] was 35 to 40 µM throughout. Besides, in data set [6], the non-cytotoxic concentration result was “up to 100 ug/ml and ≤ 200 uM”.
